According to patent publication US7789958B2, “Non-toxic corrosion-protection pigments based on manganese” (University of Dayton, priority 2003, dated 2010):
Where “and” joins values, the source holds several entries; their conditions need not be identical. Identical values can stand only once.

How the values were obtained:
[1] = cited from earlier work
[2] = ASTM B-117 static salt fog test of PVB wash primers, rated by ASTM D-1654; conditions: PVB wash primer; for B-117 Proc. A: ASTM D-1654 rating Procedure A; for B-117 Proc. B: ASTM D-1654 rating Procedure B
Protocol: (§1) The corrosion inhibiting performance of MnIII and MnIV pigments was evaluated by incorporating them into primer paint formulations. […] The wash primer is composed of a resin, an acid, a corrosion inhibiting pigment, powdered talc, and carbon lampblack. The acid content of this wash primer provides a rigorous initial test of the stability and performance of the pigments. Other, more benign, polymer-based binder and resin systems might not separate the compounds based on their performance as effectively or as rapidly. […] PVB was used exclusively throughout testing to avoid preparation and compositional complications during analysis of pigment performance. However, the invention is not limited to the use of PVB. […] A small amount (0.2 g) of powdered talc (magnesium silicate) “filler” was added. Lampblack was not added to these samples. These components were mixed thoroughly by hand and 3.8 g of phosphoric acid diluent added with further mixing. This rough processing allowed direct comparisons of pigment performance to be made without complications due to powder treatments, modifications, and additives. […] This is not the conventional paint application procedure for aluminum alloys. Under normal service conditions, aluminum alloys are first subjected to a hexavalent chromium-containing conversion coating prior to primer application. However, the conversion coating was omitted so that the performance of the pigment alone could be evaluated and not the synergistic effects of hexavalent chromium (in the conversion coating) or even of barrier films (in the phosphate or anodized coatings). […] This accelerated corrosion test exposes samples to a constant salt-water fog and is a de facto test of solubility for corrosion inhibitors. […] This accelerated corrosion test exposes samples to a cycle of fog of dilute salt and ammonium sulfate at room temperature followed by forced-air drying at an elevated temperature. This is a more realistic test of the ability of a compound to inhibit corrosion. […] After the paint dried for 24 hours, each plate was scribed with an X and the plate edges were sealed with PVC tape to eliminate corrosion edge effects. Two visual observations are associated with this rating test. Procedure A involves a rating of the failure at the scribe-the representative […] of corrosion away from the scribe. […] In this way, not only the bulk corrosion-inhibiting action of a pigment through the binder can be rated, but also its “throwing power”.

[3] = ASTM G-85.5 cyclic Prohesion test of PVB wash primers, rated by ASTM D-1654; conditions: PVB wash primer; for G-85 Proc. A: ASTM D-1654 rating Procedure A; for G-85 Proc. B: ASTM D-1654 rating Procedure B
Protocol: as §1

[4] = 7.44 × 10^−4 M (10% of Cr), 117 hours, 2024-T3 (alloy taken from column order of Table 7)
[5] = 7.44 × 10^−4 M (10% of Cr), 117 hours, 7075-T6 (alloy taken from column order of Table 7)
[6] = 7.44 × 10^−4 M (10% of Cr), 139 hours, 2024-T3 (alloy taken from column order of Table 7)
[7] = 7.44 × 10^−4 M (10% of Cr), 139 hours, 7075-T6 (alloy taken from column order of Table 7)
[8] = 1.49 × 10^−3 M (20% of Cr), 144 hours, 2024-T3 (alloy taken from column order of Table 7)
[9] = 1.49 × 10^−3 M (20% of Cr), 144 hours, 7075-T6 (alloy taken from column order of Table 7)

Compound	B-117 Proc. A [2, 4]	B-117 Proc. A [2, 5]	G-85 Proc. A [3, 4]	G-85 Proc. A [3, 5]	G-85 Proc. B [3, 4]	G-85 Proc. B [3, 5]	B-117 Proc. A [2, 6]	B-117 Proc. A [2, 7]	B-117 Proc. B [2, 6]	B-117 Proc. B [2, 7]	G-85 Proc. A [3, 6]	G-85 Proc. A [3, 7]	G-85 Proc. B [3, 6]	G-85 Proc. B [3, 7]	other results
[O]=[Cr](=[O])([O-])[O-].[O]=[Pb].[Pb+2] [basic lead chromate]															solubility in water relative to lead chromate [1]: slightly lower solubility in water
[O]1[Pb][O][Pb]12[O][Pb][O]2 [red lead]															PbVI solubility ([1]; Glasstone, J. Chem. Soc. 121: 1456-69, 1922): 10^−17 moles/liter Pb^+4
barium 9-molybdomanganate	4	3	7	8 and 7	6	7 and 6									
barium 13-vanadatomanganate							7	7	8 and 7	6	6 and 7	6	6	5	
barium hexaiodatomanganate															B-117 Proc. A [2, 8]: 5; B-117 Proc. A [2, 9]: 5; B-117 Proc. B [2, 8]: 3; B-117 Proc. B [2, 9]: 3; G-85 Proc. A [3, 8]: 7 and 8; G-85 Proc. A [3, 9]: 8 and 7; G-85 Proc. B [3, 8]: 7 and 8; G-85 Proc. B [3, 9]: 8 and 7
calcium 9-molybdomanganate	6	5	6	7	5	6									B-117 Proc. B [2, 4]: 3; B-117 Proc. B [2, 5]: 4
calcium 13-vanadatomanganate							8	7	7	6	7	7	6	6	
magnesium 13-vanadatomanganate							9	7	7	8	7	6 and 7	6	5 and 6	
strontium 9-molybdomanganate	5	4 and 5	6	6	5	5									
strontium 13-vanadatomanganate							7	7	6	6	6	6	5 and 6	5 and 6	
zinc 9-molybdomanganate	5	5	7	7 and 8	7 and 6	7									B-117 Proc. B [2, 4]: 3; B-117 Proc. B [2, 5]: 4 and 3
zinc 13-vanadatomanganate							8	7	9	8	7	7 and 6	6 and 5	6 and 5	
